Test results published in PubChem BioAssay (NCI).
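Five compound concentrations were applied to cells in 96-well plates for 48 hours; endpoints were derived by simple linear interpolation of the resulting dose-response curve. At the GI50, growth is halved. TGI: concentration producing complete growth inhibition.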

Key:
Assay in all cases: growth of human tumour cells (NCI), 48 h
[1] = tested on: OVCAR-8 ovarian
[2] = tested on: UO-31 renal
[3] = tested on: NCI/ADR-RES ovarian
[4] = tested on: OVCAR-5 ovarian
[5] = tested on: OVCAR-4 ovarian
[6] = tested on: UACC-62 melanoma
[7] = tested on: 786-0 renal
[8] = tested on: TK-10 renal
[9] = tested on: UACC-257 melanoma
[10] = tested on: COLO 205 colon

SMILES	TGI [1] [µM]	TGI [2] [µM]	TGI [3] [µM]	TGI [4] [µM]	TGI [5] [µM]	TGI [6] [µM]	TGI [7] [µM]	TGI [8] [µM]	TGI [9] [µM]	GI50 [1] [µM]	GI50 [2] [µM]	GI50 [3] [µM]	GI50 [4] [µM]	GI50 [5] [µM]	GI50 [6] [µM]	GI50 [7] [µM]	GI50 [8] [µM]	GI50 [9] [µM]	GI50 [10] [µM]	TGI [10] [µM]
COC(=O)C(=O)C(C(=O)C(=O)Nc1nc(=S)[nH][nH]1)c1nc2ccc([N+](=O)[O-])cc2[nH]c1=O (centres undefined)	> 100	> 100	> 100	> 100	> 100	> 100	> 100	> 100	> 100	–	–	–	–	–	–	–	–	–	–	–
COC(=O)C1=C(O)C(C(=O)OC)[C@@]2(O)[C@@H](C(=O)OC)C(c3ccccc3Cl)C[C@@H]1[C@@H]2C(=O)OC (some centres undefined)	34	19.8	15.9	32.4	13.8	6.89	19.5	25.4	38.8	5.81	6.14	3.16	15	3.44	2.53	5.22	10.3	15.9	14.1	31.5
O=C(Nc1ccc(N2CCNCC2)cn1)c1[nH]ncc1Nc1ncnc2sc3c(c12)CCC3	5	3.71	> 100	–	–	4.2	2.98	3.36	41.2	2.17	1.58	4.75	–	–	1.98	1.41	1.77	16.6	2.11	6.97
NC(N)=N/N=C/c1ccc(Br)cc1	21.2	19.7	10.6	24.9	31.6	17.8	17.7	21.3	29.1	5.3	5.72	3.15	10.4	10.3	5.36	5.11	7.44	12.8	2.99	7.21
COC(=O)CCc1c(/C=C2\N=C(c3ccc[nH]3)C=C2OC)[nH]c(C)c1C(=O)OCc1ccccc1	5.75	0.359	3.78	9.84	> 100	0.491	1.3	7.05	5.25	0.432	0.155	0.437	0.684	0.331	0.216	0.159	0.873	1.16	0.341	2.03
O=C1C=C(OCC=C(Cl)Cl)C(=O)c2ccccc21	15.8	15.9	> 51.7	> 82.1	3	7.64	> 100	> 100	11	3.29	3.15	3.94	8.92	1.61	2.51	51.9	61.2	2.15	4.39	12.1
CCCCCCCCCCCCCCCC(N)c1ccccc1 (centres undefined)	4.89	2.97	3.66	3.1	3.45	3.21	3.27	3.1	3.4	2.22	1.49	1.85	1.49	1.67	1.66	1.68	1.61	1.78	1.68	3.14
COc1cc2c3c(n(CCCN4CCN(CCO)CC4)c(=O)c2cc1OC)-c1cc2c(cc1C3=O)OCO2	28.3	> 100	> 100	40.9	> 50.7	> 33.9	18	37	> 81.4	7.62	> 91.5	18.2	19.9	15.9	–	4.97	15.5	30.6	15.1	> 57.2
O=C1/C(=C/c2cccc(F)c2)CN(C(=O)C(Cl)Cl)C/C1=C\c1cccc(F)c1	1.13	0.387	1.49	0.887	1.38	0.43	0.536	1.45	1.63	0.184	0.176	0.304	0.29	0.351	0.191	0.217	0.433	0.606	0.332	1.16
C[C@H](c1ccc(Cl)cc1[N+](=O)[O-])N1C(=O)c2cc(I)ccc2NC(=O)[C@H]1c1ccc(Cl)cc1	> 100	> 100	> 100	> 100	> 100	> 100	> 100	> 100	> 100	> 100	2.54	> 100	> 100	7.08	> 100	> 100	> 100	33.9	> 100	> 100
O=[N+]([O-])c1ccc2nc(=S)[nH]n2c1	> 100	> 100	> 100	> 100	> 100	> 100	> 100	> 100	> 100	–	–	–	–	–	–	–	–	–	–	> 100
Nc1ncnc2c1ncn2C1OC(C(=O)OCCO)C(O)C1O (centres undefined)	> 100	> 100	> 100	> 100	> 100	> 100	> 100	> 100	> 100	–	–	–	–	–	–	–	–	–	–	> 100
COc1cc(OC)c2c(c1Cl)O[C@]1(C2=O)C(OCc2ccccc2)=CC(=O)C[C@H]1C	29.4	61.2	3.72	> 100	73.3	18.6	79.7	63.2	49.2	1.02	2.51	0.584	1.83	7.16	0.72	0.944	4.34	1.76	0.43	1.69
CCCCCCCCC(=O)NCCN(CCN)C(=O)CCCCCCCC	26.8	26.6	31.1	30.5	16.2	21.9	12.4	30	33.7	–	–	–	–	–	–	–	–	–	–	6.72
